In paper PMC11789599, “Co‐Translational Deposition of N ^6‐Acetyl‐L‐Lysine in Nascent Proteins Contributes to the Acetylome in Mammalian Cells” (Advanced Science, 2024):

Assays:
[1] = biological target: T1, Lysyl-tRNA synthetase (KARS) (Homo sapiens, UniProt Q15046); experiment: co-crystal structure at […] Å; MST Kd; also ATP consumption/AMP production by purified KARS; assay type: binding; parameters: gene KARS1; KARS70-580, C-terminal 6xHis
[2] = biological target: T1, Lysyl-tRNA synthetase (KARS); experiment: biochemical; parameters: gene KARS1

T1 sequence (Q15046 70-580): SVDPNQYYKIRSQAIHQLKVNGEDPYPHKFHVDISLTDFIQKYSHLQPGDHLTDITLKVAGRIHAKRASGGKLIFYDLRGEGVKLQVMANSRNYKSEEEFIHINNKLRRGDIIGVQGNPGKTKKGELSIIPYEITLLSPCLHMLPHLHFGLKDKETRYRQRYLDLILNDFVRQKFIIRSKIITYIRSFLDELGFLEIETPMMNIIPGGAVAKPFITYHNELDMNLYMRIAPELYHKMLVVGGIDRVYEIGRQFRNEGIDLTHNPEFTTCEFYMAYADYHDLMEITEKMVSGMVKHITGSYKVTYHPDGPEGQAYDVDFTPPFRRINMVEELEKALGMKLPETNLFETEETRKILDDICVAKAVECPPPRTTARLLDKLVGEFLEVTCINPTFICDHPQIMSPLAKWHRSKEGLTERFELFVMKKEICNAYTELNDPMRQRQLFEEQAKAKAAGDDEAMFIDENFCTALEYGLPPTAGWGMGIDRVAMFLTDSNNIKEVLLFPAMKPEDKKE

Structure (SMILES) | Kd [1] [µM] | Kd [2] [µM]
CC(=O)NCCCC[C@H](N)C(=O)O [AcK, N6-acetyl-L-lysine] | 407 ± 291 | –
NCCCC[C@H](N)C(=O)O [L-lysine] | – | 118 ± 55.5
